The values that follow are results of earlier work, collected in patent US20150265628A1, “GENOMIC TESTING FOR EFFECTIVE THERAPIES AND DETERMINATION OF DOSING STRATEGY” (CompanionDx Reference Lab, LLC, priority 2014, published 2015).

For data set [1] the following is noted: patients with schizophrenia, while taking the drug; perphenazine 1.0 as comparator.
Another data set relates to HLA-DQB1. Particulars: marker carriers, under the current blood-monitoring system.

Regarding `OCCN1CCN(CCCN2c3ccccc3Sc3ccc(Cl)cc32)CC1` [perphenazine], the “risk of death from suicide, adjusted for risk factors” value (shortened to “risk of death from suicide, adjusted”) in data set [1] is 1.0.
For the compound `OCCOCCN1CCN(C2=Nc3ccccc3Sc3ccccc32)CC1` [quetiapine], the “risk of death from suicide, adjusted” value in data set [1] was 1.58.
On to `CN1CCN(C2=Nc3cc(Cl)ccc3Nc3ccccc32)CC1` [clozapine], for which, in data set [1], the “risk of death from suicide, adjusted” value is reported as 0.34. Further, the “risk of CIA higher than the overall clozapine-treated population” value in the data set with HLA-DQB1 is recorded as 1,175%.
